# Measurements published in patent US9173842B2, “Stable pharmaceutical composition comprising a hydrosoluble vinflunine salt” (PIERRE FABRE MEDICAMENT, priority 2007, dated 2015).
# Assay: Stability tests at 5° C. and 25° C. under sealed conditions after 3 months (impurity content)
# Assay type: physicochemical
# Conditions: sealed packaging, % of the total weight of the composition
# Method: The composition in the forms of capsule A and B were packaged in sealed packers. They were stored for 3 months at 5° C. at an external humidity level of 20%, or at 25° C. at an external humidity level of 60%.
# The weight content in impurities (in % of the total weight of the composition) was assayed immediately […], then after 3 months of storage. The difference between these two percentages gives the change in impurity content.
# It is compared to that obtained for freeze-dried vinflunine ditartrate stored under the same conditions.
substance,measurement,setting,value
vinflunine ditartrate,Changes in impurity levels at 5° C.,"3 months at 5° C., external humidity 20%",+0.8%
same,Changes in impurity levels at 25° C.,"3 months at 25° C., external humidity 60%",+1.9%
